Data published in ChEMBL document CHEMBL4004790, “ent-Strobane and ent-Pimarane Diterpenoids from Siegesbeckia pubescens” (J Nat Prod, 2017).
pIC50: −log10 of the molar value.

Assays:
[1] = system: MDA-MB-231; test: Antiinvasive activity in human MDA-MB-231 cells assessed as inhibition of EGF-induced cell invasion after 3.5 hrs; format: functional, cell-based; conditions: MDA-MB-231, 3.5 h
[2] = system: RAW264.7; test: Antiinflammatory activity in mouse RAW264.7 cells assessed as inhibition of LPS-induced nitric oxide production after 24 hrs by Griess assay; format: functional, cell-based; conditions: RAW264.7, 24 h

Row | pIC50 [1] | pIC50 [2] | SMILES
1 | 5.46 | < 4.00 | CC1(C)[C@H](O)CC[C@@]2(C)[C@@H]3CC[C@](C)([C@H](O)CO)C=C3CC[C@H]12
2 | < 5.00 | < 4.00 | C[C@@]1(CO)C[C@H](O)C[C@@]2(C)[C@@H]3CC[C@](C)([C@@H](O)CO)C=C3CC[C@H]12
3 | < 5.00 | < 4.00 | C[C@]1(CO)[C@H]2CCC3=C[C@@](C)([C@@H](O)CO)CC[C@H]3[C@]2(C)C[C@H](O)[C@H]1O
4 | < 5.00 | < 4.00 | CC1(C)[C@H](O)CC[C@@]2(C)[C@@H]3CC[C@](C)(O)[C@@H](CO)C=C3CC[C@H]12
5 | 5.37 | < 4.00 | Cc1ccc2c(c1)C(=O)C[C@@H]1[C@](C)(CO)CC(=O)C[C@@]21C
6 | < 5.00 | < 4.00 | Cc1ccc2c(c1)CC[C@@H]1[C@](C)(CO)C[C@@H](O)C[C@@]21C
7 | < 5.00 | < 4.00 | C[C@@]1(CO)C[C@@H](O)C[C@@]2(C)[C@@H]3CC[C@](C)([C@@H](O)CO)C=C3[C@@H](O)C[C@H]12
8 | < 5.00 | < 4.00 | CC1(C)[C@H](O)CC[C@@]2(C)[C@@H]3CC[C@](C)([C@@H](O)CO)C=C3C=C[C@H]12
9 | < 5.00 | < 4.00 | C[C@@]1(CO)C[C@@H](O)C[C@@]2(C)[C@@H]3CC[C@](C)(O)[C@@H](CO)C=C3CC[C@H]12
10 | < 5.00 | < 4.00 | C[C@@]1(CO)C[C@@H](O)C[C@@]2(C)[C@@H]3CC[C@](C)([C@@H](O)CO)C=C3C=C[C@H]12
11 | < 5.00 | < 4.00 | C[C@@]1(CO)C[C@@H](O)C[C@@]2(C)[C@@H]3CC[C@](C)([C@H](O)CO)C=C3CC[C@H]12
12 | < 5.00 | < 4.00 | CC1(C)[C@H](O)C[C@H](O)[C@@]2(C)[C@@H]3CC[C@](C)([C@@H](O)CO)C=C3CC[C@H]12
13 | 5.01 | < 4.00 | C[C@@]1(CO)C[C@@H](O)C[C@@]2(C)[C@@H]3CC[C@](C)([C@@H](O)CO)C=C3[C@H](O)C[C@H]12
14 | < 5.00 | < 4.00 | CC1(C)[C@H]2CC=C3[C@@H](CC[C@@]4(C)[C@@H]3OC[C@@H]4O)[C@]2(C)CC[C@@H]1O
15 | < 5.00 | < 4.00 | CC1(C)[C@H](O)CC[C@@]2(C)[C@@H]3CC[C@](C)([C@@H](O)CO)C=C3CC[C@H]12 [DARUTIGENOL]
16 | < 5.00 | < 4.00 | CC1(C)[C@H](O)CC[C@@]2(C)[C@@H]3CC[C@@]4(C)[C@H](OC[C@@H]4O)C3=CC[C@H]12
17 | < 5.00 | < 4.00 | C[C@@]1(CO)C[C@@H](O)C[C@@]2(C)[C@@H]3CC[C@](C)([C@@H](O)CO)C=C3CC[C@H]12 [KIRENOL]
18 | < 5.00 | < 4.00 | C[C@]1(CO)C[C@@H](O)C[C@@]2(C)[C@@H]3CC[C@](C)([C@@H](O)CO)C=C3CC[C@H]12
